The values that follow come from patent US9833497B2, “Human originated EGF domain proteins and use of the same” (CHENGDU SOURCEBIO LIMITED-LIABILITY COMPANY, priority 2013, dated 2017).

The term MIC denotes the least concentration at which growth counts as inhibited. The low end stands for inhibition by little substance, the high end for a need for much substance.

Common to all, as to format: cell-based
The subject of one experiment is E. coli DH5α. As to the kind of experiment: Antibacterial activity: MIC and growth curve against E. coli DH5α in 96-well plate. Particulars: minimal inhibitory concentration against E. coli DH5α; 96-well plate, 5×10^5 CFU/mL, 37° C., judged after 8 h. In short, it runs like this: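 Log-phase DH5α (OD600 about 0.5, 37° C, 185 rpm in LB) was pelleted, resuspended in fresh LB and seeded at 5×10^5 CFU/mL with recombinant protein at 50, 25 and 12.5 μg/mL (two-fold series), in triplicate. Plates were shaken at 175 rpm, 37° C, and OD600 was read every 30 min. MIC was the lowest concentration with no growth.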

Another experiment deals with E. coli BL21. The experiment is described as follows: MIC against Gram-negative bacteria: E. coli BL21. Particulars: 5×10^5 CFU/mL. In short, it runs like this: (§1)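 Purified recombinant human EGF domain proteins are tested by broth dilution in LB against a 5×10^5 CFU/mL inoculum, with two-fold serial dilutions run in triplicate. Plates are incubated at 37° C with shaking, and the MIC is read as the lowest protein concentration without growth.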

Another experiment concerns Pseudomonas aeruginosa. As to the kind of experiment: MIC against Gram-negative bacteria: Pseudomonas aeruginosa. Conditions: 5×10^5 CFU/mL. In outline:
as §1

The subject of another experiment is Klebsiella pneumonia. The experiment is described as follows: MIC against Gram-negative bacteria: Klebsiella pneumonia. Conditions: 5×10^5 CFU/mL. In short, it runs like this: as §1
The next experiment has as its system Enterobacter cloacae. The experiment is described as follows: MIC against Gram-negative bacteria: Enterobacter cloacae. Conditions: 5×10^5 CFU/mL. In short, it runs like this: as §1
A further experiment concerns Aeromonas hydrophila. The experiment is described as follows: MIC against Gram-negative bacteria: Aeromonas hydrophila. Particulars: 5×10^5 CFU/mL. In short, it runs like this:
as §1

A further experiment has as its system Citrobacter diversus. The experiment is described as follows: MIC against Gram-negative bacteria: Citrobacter diversus. Particulars: 5×10^5 CFU/mL. In short, it runs like this: as §1
A further experiment has as its system Moraxella catarrhalis. The experiment is described as follows: MIC against Gram-negative bacteria: Moraxella catarrhalis. Conditions: 5×10^5 CFU/mL. In outline:
as §1

The test system of a further experiment is Proteus mirabilis. As to the kind of experiment: MIC against Gram-negative bacteria: Proteus mirabilis. Conditions: 5×10^5 CFU/mL. In short, it runs like this: as §1
A further experiment deals with Proteus vulgaris. As to the kind of experiment: MIC against Gram-negative bacteria: Proteus vulgaris. Particulars: 5×10^5 CFU/mL. In outline:
as §1

In another experiment the test system is Serratia marcescens. The experiment is described as follows: MIC against Gram-negative bacteria: Serratia marcescens. Particulars: 5×10^5 CFU/mL. In short, it runs like this:
as §1

Setting [1] is: P. aeruginosa, 10 h cultivation at 37° C.
Setting [2] is: K. pneumonia, 10 h cultivation at 37° C.
Setting [3] is: E. cloacae, 10 h cultivation at 37° C.
The mark [4] stands for this setting: A. hydrophila, 10 h cultivation at 37° C.
Where [5] appears, read: C. diversus, 10 h cultivation at 37° C.
[6] abbreviates: M. catarrhalis, 10 h cultivation at 37° C.
Setting [7] is: P. mirabilis, 10 h cultivation at 37° C.
Where [8] appears, read: P. vulgaris, 10 h cultivation at 37° C.
[9] abbreviates: S. marcescens, 10 h cultivation at 37° C.

Regarding “PRT67 (EIDLCYSDPCGANGRCRSREGGYTCECFEDFTGEHCE; listed as Homo sapiens)”, in the experiment on E. coli DH5α, the minimal inhibitory concentration (MIC) is 12.5 µg/mL. Further, in the experiment with E. coli BL21 (96-well plate, 37° C., 10 h), the “MIC (μg/mL) E. coli BL21” value was determined as 50 µg/mL. The “MIC (μg/mL) P. aeruginosa” value in the experiment with Pseudomonas aeruginosa (Pseudomonas aeruginosa, 96-well plate, 37° C., 10 h) is 12.5 µg/mL. Also, in the experiment on Klebsiella pneumonia (Klebsiella pneumonia, 96-well plate, 37° C., 10 h), the “MIC (μg/mL) K. pneumonia” value was 25 µg/mL. In addition, in the experiment with Enterobacter cloacae (Enterobacter cloacae, 96-well plate, 37° C., 10 h), the “MIC (μg/mL) E. cloacae” value worked out at 50 µg/mL. Moreover, in the experiment with Aeromonas hydrophila (Aeromonas hydrophila, 96-well plate, 37° C., 10 h), the “MIC (μg/mL) A. hydrophila” value came to 25 µg/mL. Moreover, the “MIC (μg/mL) C. diversus” value with Citrobacter diversus (Citrobacter diversus, 96-well plate, 37° C., 10 h) was found to be 12.5 µg/mL. Also, in the experiment on Moraxella catarrhalis (Moraxella catarrhalis, 96-well plate, 37° C., 10 h), the “MIC (μg/mL) M. catarrhalis” value worked out at 25 µg/mL. Besides, in the experiment on Proteus mirabilis (Proteus mirabilis, 96-well plate, 37° C., 10 h), the “MIC (μg/mL) P. mirabilis” value was found to be 50 µg/mL. Moreover, the “MIC (μg/mL) P. vulgaris” value against Proteus vulgaris (Proteus vulgaris, 96-well plate, 37° C., 10 h) was 12.5 µg/mL. In the experiment on Serratia marcescens (Serratia marcescens, 96-well plate, 37° C., 10 h), the “MIC (μg/mL) S. marcescens” value was determined as 50 µg/mL.

On to “PRT804 (HGAHCELRCPCQNGGTCHHITGECACPPGWTGAVCA; listed as Homo sapiens)”, for which, in the experiment with E. coli DH5α, the minimum inhibitory concentration (MIC) turned out to be 12.5 µg/mL. Moreover, in the experiment with E. coli BL21 (10 h cultivation at 37° C.), the “MIC (μg/mL) E. coli BL21” value came to 50 µg/mL. Besides, the “MIC (μg/mL) P. aeruginosa” value against Pseudomonas aeruginosa (setting [1]) worked out at 12.5 µg/mL. The “MIC (μg/mL) K. pneumonia” value with Klebsiella pneumonia (setting [2]) is 50 µg/mL. Besides, the “MIC (μg/mL) E. cloacae” value in the experiment on Enterobacter cloacae (setting [3]) amounted to 12.5 µg/mL. Besides, in the experiment with Aeromonas hydrophila (setting [4]), the “MIC (μg/mL) A. hydrophila” value was 12.5 µg/mL. Moreover, the “MIC (μg/mL) C. diversus” value against Citrobacter diversus (setting [5]) worked out at 12.5 µg/mL. Besides, the “MIC (μg/mL) M. catarrhalis” value with Moraxella catarrhalis (setting [6]) was 50 µg/mL. Further, the “MIC (μg/mL) P. mirabilis” value against Proteus mirabilis (setting [7]) is 12.5 µg/mL. In addition, the “MIC (μg/mL) P. vulgaris” value against Proteus vulgaris (setting [8]) is 25 µg/mL. Further, the “MIC (μg/mL) S. marcescens” value against Serratia marcescens (setting [9]) was 50 µg/mL.

As to “PRT699 (DVDECSSGAPPCGPHGHCTNTEGSFRCSCAPGYRAPSGRPGPCA; listed as Homo sapiens)”, in the experiment on E. coli DH5α, the MIC came to 50 µg/mL. In the experiment on E. coli BL21 (96-well plate, 37° C., 10 h), the “MIC E. coli BL21” value came out at 25 µg/mL. Also, the “MIC P. aeruginosa” value in the experiment on Pseudomonas aeruginosa (96-well plate, 37° C., 10 h) came out at 12.5 µg/mL. Besides, in the experiment on Klebsiella pneumonia (96-well plate, 37° C., 10 h), the “MIC K. pneumonia” value was determined as 25 µg/mL. The “MIC E. cloacae” value in the experiment on Enterobacter cloacae (96-well plate, 37° C., 10 h) amounted to 50 µg/mL. In addition, the “MIC A. hydrophila” value in the experiment with Aeromonas hydrophila (96-well plate, 37° C., 10 h) was found to be 12.5 µg/mL. In addition, in the experiment with Citrobacter diversus (96-well plate, 37° C., 10 h), the “MIC C. diversus” value came out at 50 µg/mL. For the same substance, the “MIC M. catarrhalis” value in the experiment on Moraxella catarrhalis (96-well plate, 37° C., 10 h) turned out to be 25 µg/mL. Further, the “MIC P. mirabilis” value against Proteus mirabilis (96-well plate, 37° C., 10 h) was 12.5 µg/mL. The “MIC P. vulgaris” value in the experiment with Proteus vulgaris (96-well plate, 37° C., 10 h) stood at 25 µg/mL. The “MIC S. marcescens” value against Serratia marcescens (96-well plate, 37° C., 10 h) amounted to 50 µg/mL.

In the experiment with E. coli DH5α, “PRT211 (DIDECSYSSYLCQYRCVNEPGRFSCHCPQGYQ; listed as Homo sapiens)” showed an MIC of 25 µg/mL. Moreover, the “MIC (μg/mL) E. coli BL21” value against E. coli BL21 (10 h cultivation at 37° C.) turned out to be 12.5 µg/mL. In addition, the “MIC (μg/mL) P. aeruginosa” value in the experiment on Pseudomonas aeruginosa (setting [1]) amounted to 25 µg/mL. For the same substance, the “MIC (μg/mL) K. pneumonia” value with Klebsiella pneumonia (setting [2]) was determined as 12.5 µg/mL. Further, in the experiment on Enterobacter cloacae (setting [3]), the “MIC (μg/mL) E. cloacae” value was determined as 25 µg/mL. The “MIC (μg/mL) A. hydrophila” value in the experiment with Aeromonas hydrophila (setting [4]) worked out at 50 µg/mL. The “MIC (μg/mL) C. diversus” value in the experiment on Citrobacter diversus (setting [5]) was 25 µg/mL. Besides, the “MIC (μg/mL) M. catarrhalis” value in the experiment with Moraxella catarrhalis (setting [6]) is 12.5 µg/mL. For the same substance, the “MIC (μg/mL) P. mirabilis” value in the experiment on Proteus mirabilis (setting [7]) is 25 µg/mL. In addition, the “MIC (μg/mL) P. vulgaris” value with Proteus vulgaris (setting [8]) was found to be 50 µg/mL. The “MIC (μg/mL) S. marcescens” value in the experiment with Serratia marcescens (setting [9]) was found to be 25 µg/mL.

In the experiment with E. coli DH5α, “PRT725 (VPNLCKQICSHLCLLRPGGYSCACPQGSSFIEGSTTECD; listed as Homo sapiens)” had an MIC of 25 µg/mL. Also, the “MIC E. coli BL21” value against E. coli BL21 (96-well plate, 37° C., 10 h) is 12.5 µg/mL. Moreover, in the experiment on Pseudomonas aeruginosa (96-well plate, 37° C., 10 h), the “MIC P. aeruginosa” value is 25 µg/mL. The “MIC K. pneumonia” value with Klebsiella pneumonia (96-well plate, 37° C., 10 h) came to 50 µg/mL. Also, in the experiment on Enterobacter cloacae (96-well plate, 37° C., 10 h), the “MIC E. cloacae” value came out at 12.5 µg/mL. The “MIC A. hydrophila” value in the experiment on Aeromonas hydrophila (96-well plate, 37° C., 10 h) came to 25 µg/mL. In the experiment with Citrobacter diversus (96-well plate, 37° C., 10 h), the “MIC C. diversus” value was found to be 50 µg/mL. In the experiment on Moraxella catarrhalis (96-well plate, 37° C., 10 h), the “MIC M. catarrhalis” value was determined as 25 µg/mL. The “MIC P. mirabilis” value against Proteus mirabilis (96-well plate, 37° C., 10 h) came to 12.5 µg/mL. The “MIC P. vulgaris” value against Proteus vulgaris (96-well plate, 37° C., 10 h) worked out at 50 µg/mL. Also, the “MIC S. marcescens” value with Serratia marcescens (96-well plate, 37° C., 10 h) is 25 µg/mL.

In the experiment with E. coli DH5α, “PRT448 (SFRCQCEPGFQLGPNNRSCVDVNE; listed as Homo sapiens)” registered a minimum inhibitory concentration (MIC) of 12.5 µg/mL. For the same substance, the “MIC against E. coli BL21” value with E. coli BL21 (96-well plate, 37° C., 10 h) is 50 µg/mL. The “MIC against P. aeruginosa” value against Pseudomonas aeruginosa (96-well plate, 37° C., 10 h) was 100 µg/mL. Besides, in the experiment on Klebsiella pneumonia (96-well plate, 37° C., 10 h), the “MIC against K. pneumonia” value came to 50 µg/mL. Also, the “MIC against E. cloacae” value with Enterobacter cloacae (96-well plate, 37° C., 10 h) stood at 12.5 µg/mL. For the same substance, the “MIC against A. hydrophila” value in the experiment with Aeromonas hydrophila (96-well plate, 37° C., 10 h) amounted to 50 µg/mL. Also, the “MIC against C. diversus” value in the experiment with Citrobacter diversus (96-well plate, 37° C., 10 h) was found to be 25 µg/mL. Moreover, the “MIC against M. catarrhalis” value against Moraxella catarrhalis (96-well plate, 37° C., 10 h) was determined as 12.5 µg/mL. Further, the “MIC against P. mirabilis” value in the experiment with Proteus mirabilis (96-well plate, 37° C., 10 h) amounted to 25 µg/mL. In addition, the “MIC against P. vulgaris” value in the experiment on Proteus vulgaris (96-well plate, 37° C., 10 h) amounted to 50 µg/mL. In addition, in the experiment with Serratia marcescens (96-well plate, 37° C., 10 h), the “MIC against S. marcescens” value turned out to be 12.5 µg/mL.
